Reference: patent publication US6908919B2, “Substituted polycyclic aryl and heteroaryl pyrazinones useful for selective inhibition of the coagulation cascade” (Pharmacia Corporation, priority 1999, dated 2005)
Like-named read-outs stand apart in the source and are kept apart here.

Key:
[1] = target: T1, recombinant soluble tissue factor and recombinant human factor VIIa (TF-VIIa) (Homo sapiens, UniProt P08709); assay: TF-VIIa Assay; type: biochemical; settings: for % Inhibition TF-VIIa (100 µM): inhibitor at 100 µM; for % Inhibition TF-VIIa (30 µM): at 30 µM inhibitor; for IC50: read-out: IC50 TF-VIIa
T1 construct: conversion of coagulation factor VII to VIIa by Xa; purchased American Diagnostica, Greenwich Conn; host or cells: VIIa purchased; soluble TF made in house in E. coli

[2] = target: Human factor Xa (Homo sapiens, UniProt P00742); assay: Xa Assay; type: biochemical; design: purchased Enzyme Research Laboratories, South Bend Ind
Sequence of Human factor Xa (P00742 41-179 limits assumed): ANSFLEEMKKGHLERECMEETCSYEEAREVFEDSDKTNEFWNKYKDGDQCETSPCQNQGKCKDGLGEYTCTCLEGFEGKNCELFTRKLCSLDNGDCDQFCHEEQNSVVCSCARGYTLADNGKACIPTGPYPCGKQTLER
Sequence of Human factor Xa (P00742 235-488 limits assumed): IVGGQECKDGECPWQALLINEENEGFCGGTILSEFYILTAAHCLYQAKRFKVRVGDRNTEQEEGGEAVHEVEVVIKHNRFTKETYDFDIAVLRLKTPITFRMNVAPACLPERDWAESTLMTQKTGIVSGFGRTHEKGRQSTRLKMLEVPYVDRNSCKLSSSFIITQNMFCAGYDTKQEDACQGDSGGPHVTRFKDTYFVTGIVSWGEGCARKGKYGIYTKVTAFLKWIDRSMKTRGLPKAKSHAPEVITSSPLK

T1 sequence (P08709 61-212 limits assumed): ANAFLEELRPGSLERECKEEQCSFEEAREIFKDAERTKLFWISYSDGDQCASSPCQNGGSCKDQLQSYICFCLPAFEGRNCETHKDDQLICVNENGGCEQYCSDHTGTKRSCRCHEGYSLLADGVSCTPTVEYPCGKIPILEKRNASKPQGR
T1 sequence (P08709 213-466 limits assumed): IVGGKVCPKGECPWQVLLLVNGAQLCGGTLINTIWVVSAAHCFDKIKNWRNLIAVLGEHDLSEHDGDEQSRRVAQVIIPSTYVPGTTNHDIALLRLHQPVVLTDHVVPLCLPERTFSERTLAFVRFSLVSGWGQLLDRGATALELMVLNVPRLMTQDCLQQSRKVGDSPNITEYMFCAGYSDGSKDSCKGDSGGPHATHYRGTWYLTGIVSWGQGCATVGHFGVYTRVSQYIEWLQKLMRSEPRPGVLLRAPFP
T1 sequence (P13726 33-251 partner limits assumed): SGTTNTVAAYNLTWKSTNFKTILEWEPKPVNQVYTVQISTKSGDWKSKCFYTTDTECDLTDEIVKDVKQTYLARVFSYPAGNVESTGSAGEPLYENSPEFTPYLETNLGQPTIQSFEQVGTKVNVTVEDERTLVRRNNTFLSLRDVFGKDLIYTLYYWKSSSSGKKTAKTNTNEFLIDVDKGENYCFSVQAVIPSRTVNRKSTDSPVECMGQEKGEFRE

## O=C(Cn1c(-c2ccc3c(c2)OCO3)c(Cl)nc(NCCc2cccc(Cl)c2)c1=O)NCCc1ccncc1 [Example E-0043]
[1]
  % Inhibition TF-VIIa (100 µM): 0%
[2]; inhibitor at 100 µM
  % Inhibition Factor Xa (100 µM): 0%

## O=C(Cn1c(-c2cccc(Cl)c2)c(Cl)nc(NCCc2ccc(Cl)cc2)c1=O)NCCc1ccncc1 [Example E-0094]
[1]
  % Inhibition TF-VIIa (100 µM): 2%
[2]; inhibitor at 100 µM
  % Inhibition Factor Xa (100 µM): 2%

## O=C(Cn1c(-c2cccc(Cl)c2)c(Cl)nc(NCCc2ccc(Cl)cc2)c1=O)NCCc1ccncc1 [Example E-0082]
[1]
  % Inhibition TF-VIIa (100 µM): 4%
[2]; inhibitor at 100 µM
  % Inhibition Factor Xa (100 µM): 4%

## Nc1cccc(-c2c(Cl)nc(NC3CCC3)c(=O)n2CC(=O)NCc2ccccc2)c1 [Example 99]
[1]
  % Inhibition TF-VIIa (30 µM): 6% @ 30
[2]; at 30 µM inhibitor
  % Inhibition Factor Xa (30 µM): 8% @ 30

## CC(C)Nc1nc(Cl)c(-c2cc(N)cc(C(=O)N(C)Cc3ccccc3)c2)n(CC(=O)NCc2ccc(C(=N)N)cc2)c1=O [Example 128-2]
[1]
  IC50: 0.0256 µM
[2]; at 100 μM inhibitor
  inhibition at 100 µM: 41%

## CC(C)Nc1nc(Cl)c(-c2cc(N)cc(C(=O)NCc3ccccc3Cl)c2)n(CC(=O)NCc2ccc(C(=N)N)cc2)c1=O [Example 128-10]
[1]
  IC50: 0.009 µM

## N=C(N)c1ccc(CNC(=O)Cn2c(-c3ccccc3)c(Cl)nc(NCc3ccc(Cl)cc3Cl)c2=O)cc1 [1507-22]
[1]
  % Inhibition TF-VIIa (30 µM): 45%

## CC(C)Nc1nc(Cl)c(-c2cc(N)cc(C(=O)O)c2)n(CC(=O)NCc2ccc(C(=N)N)cc2)c1=O [Example 123]
[1]
  IC50: 0.02 µM

## C[C@@H](Nc1nc(Cl)c(-c2cccc(N)c2)n(CC(=O)NCc2ccc(C(=N)N)cc2)c1=O)C(=O)O [Example 134]
[1]
  IC50: 0.051 µM

## CC(C)Nc1nc(Cl)c(-c2cc(N)cc(C(=O)NC3CCc4ccccc4C3)c2)n(CC(=O)NCc2ccc(C(=N)N)cc2)c1=O (stereo not drawn) [Example 128-24]
[1]
  IC50: 0.0187 µM

## N=C(N)c1ccc(CNC(=O)Cn2c(-c3ccccc3)c(Cl)nc(NC(Cc3ccccc3)c3ccccc3)c2=O)cc1 (stereo not drawn) [1507-07]
[1]
  % Inhibition TF-VIIa (30 µM): 25%

## O=C(Cn1c(-c2ccc(-c3ccccc3)cc2)c(Cl)nc(NCCc2cccc(Cl)c2)c1=O)NCCc1cccnc1 [Example E-0116]
[2]
  % Inhibition Factor Xa (100 µM): 4%

## Cc1c(Cl)nc(NCCN2CCOCC2)c(=O)n1CC(=O)NCc1ccc(C(=N)N)cc1 [1471-4]
[2]; at 30 µM inhibitor
  % Inhibition Factor Xa (30 µM): 0%

## CCCC(CCC)Nc1nc(Cl)c(-c2ccccc2)n(CC(=O)NCc2ccc(C(=N)N)cc2)c1=O [Example 1517-26]
[2]; at 30 µM
  % Inhibition Factor Xa (30 µM): 0%

## CC(C)Nc1nc(Cl)c(-c2cc(N)ccc2F)n(CC(=O)NCc2ccc(C(=N)N)cc2F)c1=O [Example 73]
[2]; at 30 µM inhibitor
  % Inhibition Factor Xa (30 µM): 0%

## CC(C)Nc1nc(Cl)c(-c2cc(N)cc(C(=O)NCCCc3ccccc3)c2)n(CC(=O)NCc2ccc(C(=N)N)cc2)c1=O [Example 128-21]
[1]
  IC50: 0.037 µM

## O=C(Cn1c(-c2ccc(Cl)cc2)c(Cl)nc(NCCc2cccc(Cl)c2)c1=O)NCCc1ccncc1 [Example E-0027]
[2]; inhibitor at 100 µM
  % Inhibition Factor Xa (100 µM): 0%

## CCCNc1nc(Cl)c(-c2ccccc2)n(CC(=O)NCc2ccc(C(=N)N)cc2)c1=O [Example 1517-33]
[2]; at 30 µM
  % Inhibition Factor Xa (30 µM): 0%

## N=C(N)c1ccc(CNC(=O)Cn2c(-c3ccc4c(c3)OCO4)c(Cl)nc(NCc3ccncc3)c2=O)cc1 [1471-43]
[2]; at 30 µM inhibitor
  % Inhibition Factor Xa (30 µM): 18%

## N=C(N)c1ccc(CNC(=O)Cn2c(-c3ccsc3)c(Cl)nc(NCCc3ccccc3)c2=O)cc1 [Example 1517-13]
[2]; at 30 µM
  % Inhibition Factor Xa (30 µM): 0%

## N=C(N)c1ccc(CNC(=O)Cn2c(-c3ccccc3)c(Cl)nc(NC3CCS(=O)(=O)C3)c2=O)cc1 (stereo not drawn) [1507-36]
[2]; at 30 µM inhibitor
  % Inhibition Factor Xa (30 µM): 0%

## C[C@H](C(=O)NCc1ccc(C(=N)N)cc1)n1c(-c2ccccc2)c(Cl)nc(NCCc2ccccc2)c1=O [Example 1517-17]
[2]; at 30 µM
  % Inhibition Factor Xa (30 µM): 0%

## N=C(N)c1ccc(CNC(=O)Cn2c(-c3ccc4c(c3)OCO4)c(Cl)nc(NCCc3cccc(Cl)c3)c2=O)cc1 [1471-46]
[2]; at 30 µM inhibitor
  % Inhibition Factor Xa (30 µM): 21%

## Cc1ccccc1-c1c(Cl)nc(NCCc2ccccc2)c(=O)n1CC(=O)NCc1ccc(C(=N)N)cc1 [Example 78]
[2]; at 30 µM inhibitor
  % Inhibition Factor Xa (30 µM): 16% @ 30

## N=C(N)c1ccc(CNC(=O)Cn2c(-c3ccc4c(c3)OCO4)c(Cl)nc(NCCc3cccnc3)c2=O)cc1 [1471-48]
[2]; at 30 µM inhibitor
  % Inhibition Factor Xa (30 µM): 17%

## CC(C)Nc1nc(Cl)c(-c2cc(N)cc(C(=O)NCC(c3ccccc3)c3ccccc3)c2)n(CC(=O)NCc2ccc(C(=N)N)cc2)c1=O [Example 128-22]
[1]
  IC50: 0.052 µM

## Cc1c(Cl)nc(NCCc2ccccc2)c(=O)n1CC(=O)NCc1ccc(C(=N)N)cc1 [1471-7]
[2]; at 30 µM inhibitor
  % Inhibition Factor Xa (30 µM): 4%

## CNc1nc(Cl)c(-c2cccc(N)c2)n(CC(=O)NCc2ccc(C(=N)N)cc2)c1=O [1543-05]
[2]; at 30 µM
  % Inhibition Factor Xa (30 µM): 14%
